The test system of one series is Staphylococcus aureus. Kind of series: Antimicrobial activity against Staphylococcus aureus by two fold serial dilution method. In kind it is functional.
Series [1] concerns Mus musculus. Kind of series: Toxicity in mouse EAC cells implanted Swiss mouse assessed as RBC count at 0.5 mg/mouse dosed for 9 days starting 1 day after tumor cell implantation (reference value: 3.69 10^6/mm3)). Conditions: in vivo. In kind it is organism-based.
A further series concerns Aspergillus fumigatus. Kind of series: Antimicrobial activity against Aspergillus fumigatus 293 by two fold serial dilution method. Conditions: Af293. In kind it is functional.
For a further series, the system named is Calf thymus DNA. Kind of series: Binding affinity to calf thymus DNA by TLC plate based assay. The series is classed as nucleic-acid assay. The note with it: Bos taurus.
Series [2] has as its system Mus musculus. Kind of series: Toxicity in mouse EAC cells implanted Swiss mouse assessed as WBC count at 0.5 mg/mouse dosed for 9 days starting 1 day after tumor cell implantation (reference value: 23.96 10^3/mm3)). In kind it is organism-based. Conditions: in vivo.
Series [3] deals with Ehrlich. Kind of series: Antitumor activity against mouse EAC cells implanted in Swiss mouse assessed as viable cell count per 100 ul at 0.5 mg/mouse dosed for 9 days starting 1 day after tumor cell implantation (reference value: 83.2 x 10^6/100 ul). The series is classed as functional.
In series [4] the test system is Mus musculus. Kind of series: Toxicity in mouse EAC cells implanted Swiss mouse assessed as hemoglobin level at 0.5 mg/mouse dosed for 9 days starting 1 day after tumor cell implantation (reference value: 8.15 g/dl). The series is classed as organism-based. The note with it: in vivo.
In a further series the test system is WI-38. Kind of series: Cytotoxicity in human WI38 cells assessed as reduction in cell viability by MTT assay. In kind it is cell-based. In general terms: Formazan colour is commonly taken as a measure of viable cells.
The test system of series [5] is Ehrlich. Kind of series: Antitumor activity against mouse EAC cells implanted in Swiss mouse assessed as mouse survival time at 0.5 mg/mouse dosed for 9 days starting 1 day after tumor cell implantation (reference value: 14.5 days). The series is classed as functional.
In another series the test system is HepG2. Kind of series: Cytotoxicity in human HepG2 cells assessed as reduction in cell viability by MTT assay. In kind it is functional, cell-based.
The subject of the next series is MCF7. Kind of series: Cytotoxicity in human MCF7 cells assessed as reduction in cell viability by MTT assay. In kind it is functional, cell-based.
Series [6] has as its system Ehrlich. Kind of series: Antitumor activity against mouse EAC cells implanted in Swiss mouse assessed as increase in life span at 0.5 mg/mouse dosed for 9 days starting 1 day after tumor cell implantation relative to untreated control. In kind it is functional.
The test system of series [7] is Chromobacterium violaceum. Kind of series: Antiquorum-sensing activity against Chromobacterium violaceum ATCC 12472 assessed as reduction in violacein production at 5000 ug/ml a=. The series is classed as functional.
For the next series, the system named is Bacillus cereus. Kind of series: Antimicrobial activity against Bacillus cereus by two fold serial dilution method. The series is classed as functional.
The test system of another series is HCT-116. Kind of series: Cytotoxicity in human HCT116 cells assessed as reduction in cell viability by MTT assay. In kind it is functional, cell-based.
A further series concerns Escherichia coli. Kind of series: Antimicrobial activity against Escherichia coli by two fold serial dilution method. In kind it is functional.
Series [8] relates to Ehrlich. Kind of series: Antitumor activity against mouse EAC cells implanted in Swiss mouse assessed as tumor volume at 0.5 mg/mouse dosed for 9 days starting 1 day after tumor cell implantation (reference value: 9.85 ml). The series is classed as functional.

≈ marks a conversion by molar mass, not a printed value. Calls of active or inactive are those of the source. The rule behind the calls is not given here.

This note sets out measurements from ChEMBL document CHEMBL4265870, “Synthesis and biological evaluation of a new series of benzimidazole derivatives as antimicrobial, antiquorum-sensing and antitumor agents” (Eur J Med Chem, 2017).

Turning to `O=C1c2ccccc2C(=O)N1NCc1nc2ccccc2[nH]1`, the MIC – broadly, the lowest concentration that inhibits growth of the organism – against Staphylococcus aureus is above 2500 µg/mL; against Aspergillus fumigatus, 1250 µg/mL (≈ 4.28 mM); in the series on Bacillus cereus it was above 2500 µg/mL; in the series with Escherichia coli, above 2500 µg/mL. Further, the Activity was determined as 5.52 ×10⁶ /mm3 in the series on Mus musculus [1]; 7.11 ×10³ /mm3 in the series with Mus musculus [2]; 21.95 ×10⁶ No_unit in the series on Ehrlich [3]; 13.21 g/dL in the series on Mus musculus [4]; 2.15 mL in the series with Ehrlich [8]. In the series on Calf thymus DNA, the outcome was Active. For the same compound, the IC50 – broadly, the concentration needed to halve the response being measured – in the series on WI-38 amounted to 322 µM; in the series with HepG2 it was 32 µM; with MCF7, 37 µM; in the series with HCT-116, 31 µM. Further, in the series on Ehrlich [5], the MST was 46.7 days. Moreover, in the series on Ehrlich [6], the ILS (usually how much longer treated animals lived than controls) amounted to 222.07%. The “diameter of the inhibition zone (DIZ)” value in series [7] was found to be 4 mm.
